The supplement of paper PMC8253809

Experiments:
HGGX39 [1] = paediatric high-grade glioma line; assay: area under dose-response curve of % growth inhibition (log2 RLU vs DMSO / staurosporine), 1e-11 to 1e-4 M (% x log10 M); higher = more growth inhibition
In short: (§1)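 Patient-derived pHGG/DIPG cell lines and astrocytes were plated in 384-well plates coated with 1% Geltrex and treated in triplicate with a 10-point threefold dilution series whose mean top concentration was 35 μM, for 7 days (3 days for iAstro) at 37 °C and 5% CO2. CellTiter-Glo luminescence was log2-transformed and scaled on each plate to % activity between solvent and positive controls. Area under the curve came from the trapezoid rule applied to a fitted log-logistic curve, or to a smoothing spline where the sigmoid fit failed.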

DIPGX37 [2] = H3.3 K27M diffuse intrinsic pontine glioma line; assay: as above
In short: as §1

DIPGX29 [3] = H3.3 K27M diffuse intrinsic pontine glioma line; assay: as above
In short: as §1

HGGX6 [4] = H3.3 G34R paediatric high-grade glioma line; assay: as above
In short: as §1

HGGX39 [5] = assay: maximal growth inhibition (yFin) relative to DMSO / staurosporine; higher = more efficacious
In short: (§2)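 Treatment used a pin tool and a 10-point threefold dilution series, mean top concentration 35 μM, run in triplicate on patient-derived pHGG/DIPG cell lines and astrocyte controls in 1% Geltrex-coated 384-well plates. Plates were kept at 37 °C, 5% CO2 for 7 days (iAstro: 3 days). Log2-transformed CellTiter-Glo luminescence was scaled per plate to % activity between negative (solvent) and positive control wells and pooled before fitting. EC50 and maximal response (yFin) came from the three- or four-parameter log-logistic fit chosen by lowest AICc.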

DIPGX37 [6] = assay: as above
In short: as §2

DIPGX29 [7] = assay: as above
In short: as §2

HGGX6 [8] = assay: as above
In short: as §2

HGGX39 [9] = assay: EC50 (inflection of fitted growth-inhibition curve) (log10 M)
In short: as §2

DIPGX37 [10] = assay: as above
In short: as §2

DIPGX29 [11] = assay: as above
In short: as §2

HGGX6 [12] = assay: as above
In short: as §2

| Compound | area under dose-response curve (HGGX39 [1]) | area under dose-response curve (DIPGX37 [2]) | area under dose-response curve (DIPGX29 [3]) | area under dose-response curve (HGGX6 [4]) | maximal growth inhibition (HGGX39 [5]) [%] | maximal growth inhibition (DIPGX37 [6]) [%] | maximal growth inhibition (DIPGX29 [7]) [%] | maximal growth inhibition (HGGX6 [8]) [%] | EC50 (log10 M) (HGGX39 [9]) | EC50 (log10 M) (DIPGX37 [10]) | EC50 (log10 M) (DIPGX29 [11]) | EC50 (log10 M) (HGGX6 [12]) |
| --- | --- | --- | --- | --- | --- | --- | --- | --- | --- | --- | --- | --- |
| Nc1cc(C(F)(F)F)c(-c2cc(N3CCOCC3)nc(N3CCOCC3)n2)cn1 [BUPARLISIB] | 58.2 | 95.5 | 81.3 | 43.9 | 41.2 | 59.3 | 67.8 | 21.8 | -5.56 | -5.55 | -5.14 | -6.21 |
| Clc1ccc(CCC(Cn2ccnc2)Sc2c(Cl)cccc2Cl)cc1 (centres undefined) [BUTOCONAZOLE] | 80.5 | 69.4 | 59.7 | 37.8 | 85.9 | 70.3 | 57 | 47.6 | -4.87 | -4.84 | -4.86 | -4.79 |
| Cc1cc(C2CCCCC2)n(O)c(=O)c1 [CICLOPIROX] | 84.1 | 142 | 138 | 142 | 72.3 | 58.3 | 57.2 | 63.9 | -5.04 | -6.44 | -6.42 | -6.23 |
| C[C@@H](NCCCc1cccc(C(F)(F)F)c1)c1cccc2ccccc12 [CINACALCET] | 111 | 112 | 99.9 | 98.5 | 94.2 | 90.5 | 82.1 | 84.4 | -5.05 | -5.04 | -5.03 | -5.03 |
| CC(C)/N=c1\cc2n(-c3ccc(Cl)cc3)c3ccccc3nc-2cc1Nc1ccc(Cl)cc1 [CLOFAZIMINE] | 79.8 | 84.9 | 76.3 | 65.3 | 90.6 | 83.8 | 54.4 | 71.5 | -4.88 | -4.91 | -5.16 | -4.91 |
| CCN(CC)CCOc1ccc(C(=C(Cl)c2ccccc2)c2ccccc2)cc1 [CLOMIPHENE] | 139 | 102 | 71.2 | 80.2 | 81.6 | 84.8 | 77 | 71.4 | -5.71 | -5.2 | -4.92 | -5.11 |
| COc1cccc2c1C(=O)c1c(O)c3c(c(O)c1C2=O)C[C@@](O)(C(C)=O)C[C@@H]3O[C@H]1C[C@H](N)[C@H](O)[C@H](C)O1 [DAUNORUBICIN] | 159 | 160 | 141 | 124 | 76.1 | 82.2 | 83.3 | 76.4 | -6.13 | -5.94 | -5.69 | -5.62 |
| CCCCCCCCCCCC[N+](C)(C)CCOc1ccccc1 [DOMIPHEN] | 129 | 109 | 95.4 | 79.9 | 81 | 85.2 | 80.5 | 71.7 | -5.59 | -5.28 | -5.18 | -5.11 |
| CCCCOc1ccc(C(=O)CCN2CCCCC2)cc1 [DYCLONINE] | 110 | 129 | 92.7 | 89.2 | 98.8 | 95.1 | 87.1 | 87.9 | -5.12 | -5.35 | -4.83 | -5.02 |
| OCCN1CCN(CCCN2c3ccccc3Sc3ccc(C(F)(F)F)cc32)CC1 [FLUFENAZINE] | 64 | 59.8 | 45.7 | 67.4 | 65.9 | 65.2 | 61.6 | 63.5 | -4.77 | -4.74 | -4.74 | -4.76 |
| Fc1ccc(C(c2ccc(F)cc2)N2CCN(C/C=C/c3ccccc3)CC2)cc1 [FLUNARIZINE] | 73.5 | 62.8 | 61.5 | 56.4 | 83 | 74.5 | 71.7 | 65.9 | -4.91 | -4.84 | -4.86 | -4.86 |
| C[C@@H](O[C@H]1OCCN(Cc2nn(P(=O)(O)O)c(=O)[nH]2)[C@H]1c1ccc(F)cc1)c1cc(C(F)(F)F)cc(C(F)(F)F)c1 [FOSAPREPITANT] | 66.7 | 70.6 | 63.6 | 47.1 | 82.4 | 69.8 | 60.6 | 56 | -4.81 | -4.83 | -4.84 | -4.84 |
| CCn1c(=O)c(-c2ccc(Cl)cc2Cl)cc2cnc(Nc3ccc(N4CCNCC4)c(F)c3)nc21 [FRAX486] | 139 | 142 | 135 | 97.4 | 84.5 | 81 | 80.4 | 73.5 | -5.64 | -5.3 | -5.23 | -5.32 |
| COc1cc2ncnc(Nc3ccc(F)c(Cl)c3)c2cc1OCCCN1CCOCC1 [GEFITINIB] | 47.9 | 46.1 | 54.3 | 47.8 | 73.7 | 69.8 | 58.3 | 65.7 | -4.65 | -4.66 | -4.7 | -4.67 |
| CN(C)c1ccc(C(=C2C=CC(=[N+](C)C)C=C2)c2ccc(N(C)C)cc2)cc1 [GENTIAN VIOLET] | 164 | 152 | 158 | 133 | 121 | 124 | 128 | 112 | -4.97 | -5.13 | -5.15 | -5.16 |
| COc1cc(C(=O)N2CC[C@@H](O)[C@@H](N)C2)cc2nc(-c3cc4ccccc4n3CC3CC3)n(C)c12 [GSK-484] | 20.6 | 67.7 | 54.6 | 48.9 | 20.9 | 64 | 50.1 | 45.4 | -4.99 | -4.89 | -4.94 | -4.98 |

| Compound | area under dose-response curve (HGGX39 [1]) | area under dose-response curve (DIPGX37 [2]) | area under dose-response curve (DIPGX29 [3]) | area under dose-response curve (HGGX6 [4]) | maximal growth inhibition (HGGX39 [5]) [%] | maximal growth inhibition (DIPGX37 [6]) [%] | maximal growth inhibition (DIPGX29 [7]) [%] | maximal growth inhibition (HGGX6 [8]) [%] | EC50 (log10 M) (HGGX39 [9]) | EC50 (log10 M) (DIPGX37 [10]) | EC50 (log10 M) (DIPGX29 [11]) | EC50 (log10 M) (HGGX6 [12]) |
| --- | --- | --- | --- | --- | --- | --- | --- | --- | --- | --- | --- | --- |
| C=CC(=O)N1CCC[C@@H](n2nc(-c3ccc(Oc4ccccc4)cc3)c3c(N)ncnc32)C1 [IBRUTINIB] | 50.1 | 53.7 | 49.8 | 35.8 | 53.1 | 41.2 | 29.8 | 35.5 | -4.94 | -4.96 | -5 | -5.01 |
| O=C1[C@H](Cc2ccc(O)cc2)N2C(=O)CCN(C(=O)NCc3ccccc3)[C@H]2CN1Cc1cccc2ccccc12 [ICG001] | 52.2 | 51.9 | 29.3 | 41.9 | 32.6 | 33.4 | 21.3 | 31.8 | -5.67 | -5.54 | -5.37 | -5.14 |
| CC(C)(C)c1cc(C(C)(C)C)c(NC(=O)c2c[nH]c3ccccc3c2=O)cc1O [IVACAFTOR] | 101 | 99.3 | 90.3 | 91.8 | 97.1 | 97 | 90.9 | 91 | -5.04 | -4.98 | -4.99 | -5.01 |
| CC(=O)N1CCN(c2ccc(OCC3COC(Cn4ccnc4)(c4ccc(Cl)cc4Cl)O3)cc2)CC1 (centres undefined) [KETOCONAZOLE] | 73.6 | 36.1 | 40.9 | 53.4 | 68.2 | 37.6 | 40.2 | 56.7 | -5.12 | -4.96 | -4.92 | -4.94 |
| CCOC(=O)C1=C(C)NC(C)=C(C(=O)OCC)C1c1ccccc1/C=C/C(=O)OC(C)(C)C [LACIDIPINE] | 76.3 | 75.3 | 72.8 | 63.4 | 90.8 | 91.1 | 87.2 | 74.3 | -4.84 | -4.83 | -4.84 | -4.86 |
| CS(=O)(=O)CCNCc1ccc(-c2ccc3ncnc(Nc4ccc(OCc5cccc(F)c5)c(Cl)c4)c3c2)o1 [LAPATINIB] | 55 | 72.5 | 70.3 | 57.8 | 76.9 | 78.4 | 76.7 | 76.8 | -4.71 | -4.7 | -4.72 | -4.69 |
| Cc1cn(CCN2CCN(c3ccccc3-c3cc(C#N)cc(C(=O)NCCCN4CCCC4)c3)CC2)c2ccccc12 [LLY-507] | 66.6 | 92.2 | 86.5 | 92.5 | 79.1 | 75.6 | 76.7 | 79.4 | -4.84 | -5.22 | -5.13 | -5.12 |
| CN(C)C(=O)C(CCN1CCC(O)(c2ccc(Cl)cc2)CC1)(c1ccccc1)c1ccccc1 [LOPERAMIDE] | 60.8 | 84 | 75.5 | 58.7 | 80.5 | 93.9 | 81.5 | 79.2 | -4.75 | -4.74 | -4.79 | -4.74 |
| CC(C)OC(=O)C(C(=O)OC(C)C)=C1SC=CS1 [MALOTILATE] | 88.2 | 50.9 | 30.3 | 32.7 | 83.7 | 57.4 | 35.2 | 34.8 | -4.94 | -4.89 | -4.88 | -4.94 |
| Cc1ccc(NC(=O)c2ccc(CN3CCN(C)CC3)cc2)cc1Nc1nc(-c2cccnc2)cs1 [MASITINIB] | 66.4 | 52.8 | 57.8 | 64.6 | 81.1 | 81 | 72.3 | 78.3 | -4.71 | -4.65 | -4.69 | -4.66 |
| Cc1cccc(CN2CCN(C(c3ccccc3)c3ccc(Cl)cc3)CC2)c1 (centres undefined) [MECLIZINE] | 44.3 | 85.1 | 42.8 | 35.5 | 48.7 | 79.1 | 41.9 | 41.1 | -4.91 | -4.83 | -4.89 | -4.86 |
| CN(C)c1ccc2nc3ccc(=[N+](C)C)cc-3sc2c1 [METHYLENE BLUE] | 76.9 | 67.9 | 76.5 | 89.6 | 50.7 | 54.8 | 56.7 | 69.6 | -5.48 | -5.04 | -5.31 | -5.03 |
| Cc1c(CN2CCC(Nc3ncnc4sc(CC(F)(F)F)cc34)CC2)ccc2c1cc(C#N)n2Cc1cn[nH]c1 [MI-503] | 84.8 | 70.7 | 92.6 | 83.9 | 74.2 | 72.1 | 74 | 71.9 | -5.14 | -4.98 | -4.9 | -4.9 |
| Clc1ccc(COC(Cn2ccnc2)c2ccc(Cl)cc2Cl)c(Cl)c1 (centres undefined) [MICONAZOLE] | 39.2 | 48.6 | 46.5 | 35.5 | 42.1 | 61.9 | 45.9 | 41.5 | -4.94 | -4.79 | -4.89 | -4.87 |
| CO[C@@]12[C@H](COC(N)=O)C3=C(C(=O)C(C)=C(N)C3=O)N1C[C@@H]1N[C@@H]12 [MITOMYCIN C] | 91.5 | 95.2 | 78 | 75.4 | 69.7 | 73 | 62.3 | 66.2 | -4.78 | -4.87 | -4.78 | -4.76 |
| COc1c(C)c2c(c(O)c1C/C=C(\C)CCC(=O)OCCN1CCOCC1)C(=O)OC2 [MYCOPHENOLATE MOFETIL] | 39.6 | 41.2 | 36.4 | 30.4 | 24.4 | 30.5 | 24.8 | 20 | -5.61 | -5.33 | -5.33 | -5.49 |
